Test system: Mus musculus
Test: Compound was evaluated for antinociceptive potency by subcutaneous administration in mice using the hotplate assay
Format: functional
Conditions: sc

Going from `CC1[C@@H]2Cc3ccc(O)cc3[C@@]1(C)CCN2CCc1ccccc1` (some centres undefined) to `C[C@H]1C2Cc3ccc(O)cc3[C@]1(C)CCN2C`, the ED50 rises from 0.1 mg/kg to 2.6 mg/kg (26-fold).

First: Oc1cccc([C@@]23CCC[C@@H](C2)N(CCc2ccccc2)CC3)c1
Second: CN1CC[C@]2(c3cccc(O)c3)CCC[C@H]1C2
The ED50 of the first is 2-fold higher: 3.99 mg/kg for the first, 2 mg/kg for the second.

— ChEMBL document CHEMBL1126050, “Edward E. Smissman-Bristol-Myers Squibb Award Address. The role of concepts in structure-activity relationship studies of opioid ligands” (1992)
